Experimental data taken from patent US20250388565A1, “ESTROGEN RECEPTOR ALPHA DEGRADERS AND METHODS OF USE THEREOF” (Relay Therapeutics, Inc., priority 2022, published 2025).

The compounds below were run against T1, ERα protein (HiBiT-tagged) in ESR1_HiBiT KI MCF7 cells (Homo sapiens, UniProt P03372) (assay: Nano Glo HiBiT Lytic Degradation Assay). Settings: 6 hours with compound, 14-point dose response 1:3, bell-shape curve fit, half-maximal effect of first Hill model, read-out: MCF7 ESR1 HiBiT - (DC50).
T1 sequence (P03372 1-595): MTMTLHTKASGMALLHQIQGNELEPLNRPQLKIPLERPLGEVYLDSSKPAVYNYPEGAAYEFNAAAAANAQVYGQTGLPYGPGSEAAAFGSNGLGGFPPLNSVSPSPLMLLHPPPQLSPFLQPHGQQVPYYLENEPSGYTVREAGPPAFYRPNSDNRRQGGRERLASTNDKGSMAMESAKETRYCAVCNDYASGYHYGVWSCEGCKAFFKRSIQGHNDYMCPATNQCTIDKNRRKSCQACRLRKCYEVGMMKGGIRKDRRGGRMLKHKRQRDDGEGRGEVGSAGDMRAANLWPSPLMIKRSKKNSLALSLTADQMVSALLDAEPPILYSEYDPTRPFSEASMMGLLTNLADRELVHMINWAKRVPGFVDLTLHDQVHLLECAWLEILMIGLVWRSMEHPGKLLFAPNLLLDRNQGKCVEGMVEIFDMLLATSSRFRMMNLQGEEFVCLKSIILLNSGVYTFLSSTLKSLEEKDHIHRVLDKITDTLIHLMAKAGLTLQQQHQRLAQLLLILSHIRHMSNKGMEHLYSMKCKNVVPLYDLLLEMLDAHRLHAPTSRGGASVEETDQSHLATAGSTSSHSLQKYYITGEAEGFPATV
Assay type: cell-based
Procedure, shortened: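 HiBiT-tagged endogenous ERα remaining in MCF7 knock-in cells was quantified by lytic luminescence after a 6 h treatment. DC50 values derive from a bell-shaped curve, taken at the first Hill component's half-maximal effect.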

**Q.** For `Cn1c(=O)n([C@@H]2CCC(=O)NC2=O)c2ccc(N3CCN(CC4CCN(c5ccc([C@@H]6c7ccc(O)cc7CO[C@@H]6c6ccccc6)cc5)CC4)CC3)cc21` (single isomer, unassigned) [Compound I-388], which DC50 is on record?
**A.** Its DC50 is 40 nM.

**Q.** Which DC50 does the source give for `O=C1CC[C@H](c2ccc(N3CCC4(CCN(CC5CCN(c6ccc([C@@H]7c8ccc(O)cc8CO[C@@H]7c7ccccc7)cc6)CC5)C4)CC3)cc2)C(=O)N1` (single isomer, unassigned) [Compound I-389] here?
**A.** Its DC50 is 0.28 nM.

**Q.** Which DC50 does the source give for `O=C1CC[C@@H](c2ccc(N3CCC4(CCN(CC5CCN(c6ccc([C@@H]7c8ccc(O)cc8CO[C@@H]7c7ccccc7)cc6)CC5)C4)CC3)cc2)C(=O)N1` (single isomer, unassigned) [Compound I-390] here?
**A.** The DC50 was 22 nM.

**Q.** For `Cn1nc([C@H]2CCC(=O)NC2=O)c2ccc(N3CCN(CC4CCN(c5ccc([C@@H]6c7ccc(O)cc7CO[C@@H]6c6ccccc6)cc5)CC4)CC3)cc21` (single isomer, unassigned) [Compound I-394], which DC50 is on record?
**A.** The DC50 was 0.39 nM.

**Q.** With `Cn1nc([C@@H]2CCC(=O)NC2=O)c2ccc(N3CCN(CC4CCN(c5ccc([C@@H]6c7ccc(O)cc7CO[C@@H]6c6ccccc6)cc5)CC4)CC3)cc21` (single isomer, unassigned) [Compound I-395] as the compound, how does the DC50 read?
**A.** Its DC50 is 0.28 nM.

**Q.** `O=C1CC[C@H](N2Cc3cc(N4CCN(CC5CCN(c6ccc([C@@H]7c8ccc(O)cc8CC[C@@H]7C7=CCCCC7)cc6)CC5)CC4)ccc3C2=O)C(=O)N1` (single isomer, unassigned) [Compound I-407] was tested. Which DC50 did it give?
**A.** Its DC50 is 0.19 nM.

**Q.** `O=C1CC[C@H](N2Cc3cc(N4CCC(CN5CCC(n6cc([C@@H]7c8ccc(O)cc8CC[C@@H]7c7ccccc7)cn6)CC5)CC4)ccc3C2=O)C(=O)N1` (single isomer, unassigned) [Compound I-409] was tested. Which DC50 did it give?
**A.** Its DC50 is ≥ 10000 nM.

**Q.** With `O=C1CC[C@H](N2Cc3cc(N4CCN(CC5CCN(c6ccc([C@@H]7c8ccc(O)cc8CC[C@@H]7c7cccc8c7CCC8)cc6)CC5)CC4)ccc3C2=O)C(=O)N1` (single isomer, unassigned) [Compound I-410] as the compound, how does the DC50 read?
**A.** Its DC50 is ≥ 10000 nM.

**Q.** For `O=C1CC[C@H](N2Cc3cc(N4CCN(CC5CCN(c6ccc([C@H]7c8ccc(O)cc8CC[C@H]7c7cccc8c7CCC8)cc6)CC5)CC4)ccc3C2=O)C(=O)N1` (single isomer, unassigned) [Compound I-411], which DC50 is on record?
**A.** Its DC50 is 1 nM.

**Q.** With `O=C1CC[C@H](N2Cc3cc(N4CCN(CC5CCN(c6ccc([C@@H]7c8ccc(O)cc8CC[C@@H]7c7ccc8c(c7)CCC8)cc6)CC5)CC4)ccc3C2=O)C(=O)N1` (single isomer, unassigned) [Compound I-412] as the compound, how does the DC50 read?
**A.** Its DC50 is 332 nM.

**Q.** For `O=C1CC[C@H](N2Cc3cc(N4CCN(CC5CCN(c6ccc([C@H]7c8ccc(O)cc8CC[C@H]7c7ccc8c(c7)CCC8)cc6)CC5)CC4)ccc3C2=O)C(=O)N1` (single isomer, unassigned) [Compound I-413], which DC50 is on record?
**A.** The DC50 was 0.27 nM.

**Q.** `Cc1cc([C@H]2CCc3cc(O)ccc3[C@H]2c2ccc(N3CCC(CN4CCN(c5ccc6c(c5)CN([C@H]5CCC(=O)NC5=O)C6=O)CC4)CC3)cc2)n(C)n1` (single isomer, unassigned) [Compound I-414] was tested. Which DC50 did it give?
**A.** Its DC50 is 0.37 nM.

**Q.** For `Cc1cc([C@@H]2CCc3cc(O)ccc3[C@@H]2c2ccc(N3CCC(CN4CCN(c5ccc6c(c5)CN([C@H]5CCC(=O)NC5=O)C6=O)CC4)CC3)cc2)n(C)n1` (single isomer, unassigned) [Compound I-415], which DC50 is on record?
**A.** The DC50 was 0.02 nM.

**Q.** `O=C1CC[C@H](N2Cc3cc(N4CCN(CC5CCN(c6ccc([C@H]7c8ccc(O)cc8CC[C@H]7C7=CCCCC7)cc6)CC5)CC4)ccc3C2=O)C(=O)N1` (single isomer, unassigned) [Compound I-416] was tested. Which DC50 did it give?
**A.** The DC50 was 0.44 nM.

**Q.** How did the DC50 turn out when `C[C@]1(C2CCCCC2)OCc2cc(O)ccc2[C@H]1c1ccc(N2CCC(CN3CCN(c4ccc5c(c4)CN([C@H]4CCC(=O)NC4=O)C5=O)CC3)CC2)cc1` (single isomer, unassigned) [Compound I-418] was run?
**A.** The DC50 was 0.33 nM.

**Q.** For `C[C@@H]1C[C@H](c2ccccc2)[C@H](c2ccc(N3CCC(CN4CCN(c5ccc6c(c5)CN([C@H]5CCC(=O)NC5=O)C6=O)CC4)CC3)cc2)c2ccc(O)cc21` (single isomer, unassigned) [Compound I-419], which DC50 is on record?
**A.** The DC50 was 2 nM.

**Q.** For `C[C@H]1C[C@H](c2ccccc2)[C@H](c2ccc(N3CCC(CN4CCN(c5ccc6c(c5)CN([C@H]5CCC(=O)NC5=O)C6=O)CC4)CC3)cc2)c2ccc(O)cc21` (single isomer, unassigned) [Compound I-420], which DC50 is on record?
**A.** The DC50 was 2 nM.

**Q.** For `O=C1CCC(c2ccc(N3CCC4(CCN(CC5CCN(c6ccc([C@@H]7c8ccc(O)cc8CC[C@@H]7c7ccccc7)cc6)CC5)C4)CC3)cc2)C(=O)N1` (single isomer, unassigned) [Compound I-421], which DC50 is on record?
**A.** The DC50 was 0.77 nM.

**Q.** For `O=C1CCC(c2ccc3c(c2)C[C@@H](N2CCN(CC4CCN(c5ccc([C@@H]6c7ccc(O)cc7CC[C@@H]6c6ccccc6)cc5)CC4)CC2)CC3)C(=O)N1` (single isomer, unassigned) [Compound I-422], which DC50 is on record?
**A.** The DC50 was 141 nM.

**Q.** Which DC50 does the source give for `O=C1CCC(c2ccc3c(c2)C[C@H](N2CCN(CC4CCN(c5ccc([C@@H]6c7ccc(O)cc7CC[C@@H]6c6ccccc6)cc5)CC4)CC2)CC3)C(=O)N1` (single isomer, unassigned) [Compound I-423] here?
**A.** The DC50 was ≥ 10000 nM.

**Q.** Which DC50 does the source give for `C[C@H]1CN(c2ccc3c(c2)CN([C@H]2CCC(=O)NC2=O)C3=O)CCN1CC1CCN(c2ccc([C@@H]3c4ccc(O)cc4CC[C@@H]3c3ccccc3)cc2)CC1` (single isomer, unassigned) [II-1] here?
**A.** Its DC50 is 2 nM.

**Q.** Which DC50 does the source give for `C[C@@H]1CN(CC2CCN(c3ccc([C@@H]4c5ccc(O)cc5CC[C@@H]4c4ccccc4)cc3)CC2)CCN1c1ccc2c(c1)CN([C@H]1CCC(=O)NC1=O)C2=O` (single isomer, unassigned) [II-3] here?
**A.** The DC50 was 6 nM.

**Q.** Which DC50 does the source give for `C[C@@H]1CN(CC2CCN(c3ccc([C@H]4c5ccc(O)cc5CC[C@H]4c4ccccc4)cc3)CC2)CCN1c1ccc2c(c1)CN([C@H]1CCC(=O)NC1=O)C2=O` (single isomer, unassigned) [II-4] here?
**A.** Its DC50 is 1140 nM.

**Q.** Which DC50 does the source give for `O=C1CC[C@H](N2Cc3cc(N4C[C@H]5C[C@@H]4CN5CC4CCN(c5ccc([C@@H]6c7ccc(O)cc7CC[C@@H]6c6ccccc6)cc5)CC4)ccc3C2=O)C(=O)N1` (single isomer, unassigned) [II-5] here?
**A.** Its DC50 is 2 nM.

**Q.** Which DC50 does the source give for `O=C1CC[C@H](N2Cc3cc(N4C[C@H]5C[C@@H]4CN5CC4CCN(c5ccc([C@H]6c7ccc(O)cc7CC[C@H]6c6ccccc6)cc5)CC4)ccc3C2=O)C(=O)N1` (single isomer, unassigned) [II-6] here?
**A.** Its DC50 is ≥ 10000 nM.

**Q.** With `CN(CC1CCN(c2ccc([C@@H]3c4ccc(O)cc4CC[C@@H]3c3ccccc3)cc2)CC1)C1CN(c2ccc3c(c2)CN(C2CCC(=O)NC2=O)C3=O)C1` (single isomer, unassigned) [II-9] as the compound, how does the DC50 read?
**A.** Its DC50 is 21 nM.

**Q.** `C[C@H]1CN(CC2CCN(c3ccc([C@@H]4c5ccc(O)cc5CC[C@@H]4c4ccccc4)cc3)CC2)CCN1c1ccc2c(c1)CN([C@H]1CCC(=O)NC1=O)C2=O` (single isomer, unassigned) [II-10] was tested. Which DC50 did it give?
**A.** Its DC50 is 5 nM.

**Q.** How did the DC50 turn out when `C[C@H]1CN(c2ccc3c(c2)CN([C@H]2CCC(=O)NC2=O)C3=O)CCN1CC1CCN(c2ccc([C@H]3c4ccc(O)cc4CC[C@H]3c3ccccc3)cc2)CC1` (single isomer, unassigned) [II-11] was run?
**A.** Its DC50 is ≥ 10000 nM.

**Q.** Which DC50 does the source give for `C[C@H]1CN(CC2CCN(c3ccc([C@H]4c5ccc(O)cc5CC[C@H]4c4ccccc4)cc3)CC2)CCN1c1ccc2c(c1)CN([C@H]1CCC(=O)NC1=O)C2=O` (single isomer, unassigned) [II-12] here?
**A.** Its DC50 is ≥ 10000 nM.

**Q.** For `O=C1CC[C@H](N2Cc3cc(N4CCN(C[C@H]5CCN(c6ccc([C@@H]7c8ccc(O)cc8CC[C@@H]7c7ccccc7)cc6)C5)CC4)ccc3C2=O)C(=O)N1` (single isomer, unassigned) [II-13], which DC50 is on record?
**A.** Its DC50 is 18 nM.

**Q.** For `CN(CC1CCN(c2ccc([C@H]3c4ccc(O)cc4CC[C@H]3c3ccccc3)cc2)CC1)C1CN(c2ccc3c(c2)CN(C2CCC(=O)NC2=O)C3=O)C1` (single isomer, unassigned) [II-14], which DC50 is on record?
**A.** The DC50 was ≥ 10000 nM.

**Q.** Which DC50 does the source give for `C[C@@H]1CN(c2ccc3c(c2)CN([C@H]2CCC(=O)NC2=O)C3=O)CCN1CC1CCN(c2ccc([C@H]3c4ccc(O)cc4CC[C@H]3c3ccccc3)cc2)CC1` (single isomer, unassigned) [II-15] here?
**A.** Its DC50 is ≥ 10000 nM.

**Q.** With `O=C1CCC(N2Cc3c(ccc(N4CCN(CC5CCN(c6ccc([C@@H]7c8ccc(O)cc8CC[C@@H]7c7ccccc7)cc6)CC5)CC4)c3F)C2=O)C(=O)N1` (single isomer, unassigned) [II-16] as the compound, how does the DC50 read?
**A.** The DC50 was 2 nM.

**Q.** Which DC50 does the source give for `O=C1CC[C@H](N2Cc3cc(N4CCC5(CCN(CC6CCN(c7ccc([C@H]8c9ccc(O)cc9CC[C@H]8c8ccccc8)cc7)CC6)CC5)CC4)ccc3C2=O)C(=O)N1` (single isomer, unassigned) [II-18] here?
**A.** Its DC50 is ≥ 10000 nM.

**Q.** With `O=C1CCC(N2Cc3cc(N4CCN(CC5CCN(c6ccc([C@@H]7c8ccc(O)cc8CC[C@@H]7c7ccccc7)cc6)CC5)CC4)c(F)cc3C2=O)C(=O)N1` (single isomer, unassigned) [II-19] as the compound, how does the DC50 read?
**A.** The DC50 was ≥ 10000 nM.
